Measurements: patent publication US6685851B2, “Derivatives of cycloaliphatic diamines as cosolvents for aqueous hydrophobic amines” (PRC-DeSoto International, Inc., priority 1999, dated 2004)

What was measured:
Format in all cases: physicochemical
[1] = Water added dropwise to 1:1 hydrophobic amine/cosolvent amine blend until turbidity (visible light scattering)
Description: To illustrate the efficiency of the present invention to solubilize various hydrophobic amines, one part by weight of various commercially available hydrophobic amines is blended with one part by weight of a cosolvent amine. Water is then added dropwise with vigorous stirring to the blend of one part hydrophobic amine and one part cosolvent amine. The parts of water added is monitored by the appearance of turbidity as measured by visible light scattering. […] Cosolvents amines A-D are those of the present invention. In order to assess the relative efficiency of the cosolvent amines of the present invention, A-D; conventional cosolvent amines, E-I and the omission of a cosolvent, J are also evaluated.

[2] = Aqueous solution of polyamidoamine with cosolvent amine, appearance and stability (Example 1); conditions: 10 parts polyamidoamine, 10 parts cosolvent, 150 parts room temperature water
Description: 10 parts of a polyamidoamine (Air Products 506 amidoamine) is added to a reactor equipped with a mechanical agitator.

[3] = target: T1, bacteriorhodopsin (Halobacterium salinarum, UniProt P02945); test: Dispersion of bacteriorhodopsin in aqueous cosolvent by small angle x-ray scattering (Example 3); conditions: 0.1 gram bacteriorhodopsin, 0.1 grams cosolvent, 1.1 grams water
T1 construct: A lyophilized powder of bacteriorhodopsin is obtained according to D. Oesterhett Mtds; Enzy 31, 1974, 667; made in house; host or cells: Isolated from the natural producer (Halobacterium) by the cited literature method
T1 sequence (P02945 14-262): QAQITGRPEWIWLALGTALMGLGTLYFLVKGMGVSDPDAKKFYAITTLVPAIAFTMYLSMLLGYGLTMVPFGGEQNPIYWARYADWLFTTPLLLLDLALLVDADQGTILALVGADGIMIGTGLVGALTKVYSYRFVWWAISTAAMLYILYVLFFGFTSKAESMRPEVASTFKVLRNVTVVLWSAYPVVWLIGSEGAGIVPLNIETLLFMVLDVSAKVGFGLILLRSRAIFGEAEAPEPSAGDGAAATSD
Source text: A lyophilized powder of bacteriorhodopsin is obtained according to D. Oesterhett Mtds. Enzy 31, 1974, 667. 0.1 gram of bacteriorhodopsin is mixed with 0.1 grams of 1,2 diaminocycylohexane cosolvent and 1.1 grams of water added.

[4] = 1 part Air Products 506 Amidoamine + 1 part cosolvent amine by weight
[5] = 1 part Air Products 2460 Polyamide + 1 part cosolvent amine by weight
[6] = 1 part Cardolite NC-540 Phenalkamine + 1 part cosolvent amine by weight

SMILES	Parts of water added to 2 parts of amine blend yielding a clear solution [1, 4] [parts]	Parts of water added to 2 parts of amine blend yielding a clear solution [1, 5] [parts]	Parts of water added to 2 parts of amine blend yielding a clear solution [1, 6]	Appearance of aqueous solution [2]	Stability of the solution [2]	Dispersion of bacteriorhodopsin in the aqueous cosolvent [3]
CC1(C)CC(N)CC(C)(CN)C1 (stereo not drawn) [Cosolvent A, Isophorone diamine]	>28	>22	>30 parts	–	–	–
NCC1CCCC(CN)C1 (stereo not drawn) [Cosolvent B, 1,3-Bis (aminomethyl) cyclohexane]	>19	>10	>18 parts	uniform, clear solution is formed	stable for greater than three months	–
NC1CCCCC1N (stereo not drawn) [Cosolvent C, 1,2-Diamino cyclohexane]	–	–	–	–	–	uniformly dispersed
NC1CCCC1N (stereo not drawn) [Cosolvent D, 1,2 Diaminocyclopentane]	<5	<5	<3.5 parts	–	–	–
CC(CN)CCCN (stereo not drawn) [Cosolvent E]	<6	3.5	<3.9 parts	–	–	–
NCCCN1CCN(CCCN)CC1 [Cosolvent F, 1,4-Bis (3-aminopropyl) piperazine, reference compound]	<4	<2	<.5 parts	–	–	–
NCCOCCOCCN [Cosolvent G]	<2	<2	<.5 parts	–	–	–
CCCCC(N)CN (stereo not drawn) [Cosolvent H, 1,2-Hexanediamine, reference compound]	<7	<3.6	<3 parts	–	–	–
NCc1cccc(CN)c1 [Cosolvent I, m-Xylylenediamine, reference compound]	<5	<3.75	<.5 parts	–	–	–
